Experimental data as given in patent publication US20150344457A1, “METHODS OF INHIBITING PRMT5” (EPIZYME, INC., priority 2012, published 2015).

System: Z-138 cells
Assay: Z-138 Methylation Assay (In Cell Western for symmetric di-methyl arginine and DNA content)
Assay type: cell-based
Conditions: Homo sapiens, Table A-2, 96 hours, symmetric di-methyl arginine, read-out: ICW EC50
Method in brief: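 Symmetric di-methyl arginine signal (800 nm) ratioed to DNA content (700 nm) by In Cell Western after four days of compound treatment of Z-138 suspension cells seeded at 50,000 cells/mL. Percent inhibition set between DMSO and 3 μM reference wells; IC50 curves from triplicates.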

| EC50 [nM] | Structure (SMILES) |
| --- | --- |
| 101 to 1000 | O=C(COc1cccc2c1CNCC2)NCC(O)CN1CCc2ccccc2C1 (centres unmarked) [Compound A119] |
| 1000 to 10000 | CN1CCc2cccc(OCC(=O)NCC(O)CN3CCc4ccccc4C3)c2C1 (centres unmarked) [Compound A120] |
| 1000 to 10000 | CC(=O)N1CCN(S(=O)(=O)c2ccccc2OCC(=O)NCC(O)CN2CCc3ccccc3C2)CC1 (centres unmarked) [Compound A122] |
| 101 to 1000 | CNS(=O)(=O)c1ccccc1OCC(=O)NCC(O)CN1CCc2ccccc2C1 (centres unmarked) [Compound A123] |
| 1000 to 10000 | O=C(COc1cccc2c1OCC(=O)N2)NCC(O)CN1CCc2ccccc2C1 (centres unmarked) [Compound A124] |
| 1000 to 10000 | CN(C)c1ncccc1OCC(=O)NCC(O)CN1CCc2ccccc2C1 (centres unmarked) [Compound A127] |
| 1000 to 10000 | O=C(COc1cccc2ncc(=O)[nH]c12)NCC(O)CN1CCc2ccccc2C1 (centres unmarked) [Compound A129] |
| 101 to 1000 | CN1CCCC(c2ccccc2OCC(=O)NCC(O)CN2CCc3ccccc3C2)C1 (centres unmarked) [Compound A130] |
| 1000 to 10000 | CN1CCC(c2ccccc2OCC(=O)NCC(O)CN2CCc3ccccc3C2)CC1 (centres unmarked) [Compound A134] |
| 1000 to 10000 | O=C(COc1ccccc1-c1ncc[nH]1)NCC(O)CN1CCc2ccccc2C1 (centres unmarked) [Compound A137] |
| 101 to 1000 | CN(c1cccc(OCC(=O)NCC(O)CN2CCc3ccccc3C2)c1)S(C)(=O)=O (centres unmarked) [Compound A142] |
